From patent EP0311632B1, “SURFACE ACTIVE LACTAMS” (priority 1986, dated 1988)
Like-named read-outs stand apart in the source and are kept apart here. Marks after values point to notes of the source that are not given here.

Legend:
[1] = value starred: literature value; cited from earlier work
[2] = Surface activity parameters calculated from surface tension measurements (Gibbs adsorption equation); type: physicochemical; conditions: for am: area of the molecule at the interface; for pC-20: negative logarithm of surfactant concentration required to lower surface tension by 20 dynes/cm; for CMC: critical micelle concentration, calculated from surface tension data
Experimental: The critical micelle concentration (CMC), the surface concentration at the liquid-air interface ( ? ), the area of the test molecule at the interface (am) and the effectiveness of adsorption at the interface (pC-20) were determined on the above surface tension data reported in Example XXI, Table 1.
More specifically, the CMC of the N-(n alkyl) pyrrolidones tested show a minimum (4.7 x 10⁻⁵) at the C₁₂ chain length. Using the empirical equation for n-lauryl (C₁₂) alcohol ethoxylate, log CCMC (= A)^1 (+ B)^1 n [formula] where A¹ = 4.4, B¹ = 0.046, and n = number of ethylene oxide at 23°C., the pyrrolidone ring would be expected to behave as 2 ethylene oxide units. […] The hydrophilic-lipophilic balance (HLB) of N-n-dodecyl pyrrolidone, based on the assumption that the pyrrolidone ring simulates 2-6 ethylene oxide units is 6.5 - 11 using the equation % ethylene oxide/5 - HLB.
The surface concentration ? , in moles per cm indicates the maximum surface concentration of surfactant, i.e. at equilibrium above the CMC, and is obtained by an estimation of a constant d γ /dc* from the surface tension vs. concentration. […] The mono disperse nature of the hydrophobe and hydrophile is believed to contribute to high surface concentrations by maximizing enthropy of packing. * d γ/dc = the change in surface tension with respect to the change in surfactant concentration.

[3] = Solubility of N-alkyl pyrrolidones, 10% by weight in various liquids; type: physicochemical; parameters: key to 10% PRODUCT SOLUBILITY: I: insoluble; PS: partially soluble (cloudy translucent); S: soluble, clear; *: Soluble with slight haze; **: Very slight precipitation; conditions: for 10% PRODUCT SOLUBILITY: 25°C ± 1°C; for solubility in water: room temperature, 10% concentration, in words
Experimental: Separate 10% by weight solutions of N-alkyl-2-pyrrolidone in the following liquids were made up in 50 ml glass beakers and the solubilities at about 25°C. were noted and reported in following Table 9.

[4] = Viscosity (Brookfield Viscometer, LVT Model); type: physicochemical
Experimental: The viscosities in cps of the following surfactants at various concentration in distilled water were measured at about 25°C. using a Brookfield Viscometer (LVT Model).
The above viscosity of alkyl pyrrolidones and their aqueous solutions were obtained usinq a #2 spindle at a speed of 30 rpm, and a #2 spindle at a speed of 60 rpm respectively.

[5] = pH of product, 10% in 50/50 isopropyl alcohol-water; type: physicochemical
From the text: Into a stainless steel autoclave was introduced n-octylamine (2342 g) and butyrolactone (1704 g) in a mole ratio of about 1:1.1.

[6] = Cloud point of 10% aqueous solutions; type: physicochemical; conditions: 10% aqueous solution
From the text: The higher the cloud point, the more soluble, i.e. hydrated, the surfactant.

[7] = Surface tension of aqueous solutions (Fisher Surface Tensiomat, ring tensiometer); type: physicochemical; conditions: 25°C.
Experimental: Surface tension measurements in triplicate were made for each of the N-alkylpyrrolidone species listed below in Table 1, using a Fisher Surface Tensiomat (Model #21, Der Nouy Ring Tensionometer). Each experiment was carried out as follows.
Distilled water solutions at concentrations noted in Table 1 were prepared for each of the following surfactants in 100 ml glass flasks. The solutions were stirred for about 15 minutes until homogeneous solutions were obtained. The surface tensions of these solutions were then measured.

[8] = Titration of 10% dispersions with HCl to a clear solution (protonation); type: physicochemical; conditions: clear solution after HCl titration
From the text: Ten percent dispersions of the C₈ and C₁₀ pyrrolidones were titrated to a clear solution using HCl.
To obtain a rough figure for the protonation equilibrium constant, the equilibrium [octyl pyrrolidone] was taken at 5 x 10⁻³m.

[9] = Density, heat of vaporization and solubility parameter; type: physicochemical
[10] = 2% in distilled water, about 25°C., #2 spindle 60 rpm
[11] = 4% in distilled water, about 25°C., #2 spindle 60 rpm
[12] = 6% in distilled water, about 25°C., #2 spindle 60 rpm
[13] = 8% in distilled water, about 25°C., #2 spindle 60 rpm
[14] = 10% in distilled water, about 25°C., #2 spindle 60 rpm
[15] = 100%, about 25°C., #2 spindle 30 rpm
[16] = product as such, stated in description and preparation examples
[17] = 0.0001% solution in distilled water
[18] = 0.001% solution in distilled water
[19] = 0.01% solution in distilled water
[20] = 0.1% solution in distilled water

Row | Compound | am [2] | pC-20 [2] | 10% PRODUCT SOLUBILITY ([3]; Acetone) | 10% PRODUCT SOLUBILITY ([3]; Ethanol) | 10% PRODUCT SOLUBILITY ([3]; Heptane) | 10% PRODUCT SOLUBILITY ([3]; Paraffin Oil) | 10% PRODUCT SOLUBILITY ([3]; Perchloroethylene) | 10% PRODUCT SOLUBILITY ([3]; Stoddard Solvent) | 10% PRODUCT SOLUBILITY ([3]; Water) | 10% PRODUCT SOLUBILITY ([3]; Xylene) | solubility in water [3] | VISCOSITY [4, 15] | VISCOSITY [4, 16] | pH [5] | CMC [2] | Cloud Point [6] | Surface Tension of Aqueous Solutions [7, 18] | Surface Tension of Aqueous Solutions [7, 19] | Surface Tension of Aqueous Solutions [7, 20] | further results
1 | CCCCCCCCCCCC[N+](C)(C)[O-] [lauryl dimethyl amine oxide, reference compound] | 59.3 (Å)^2 | 5.23 | – | – | – | – | – | – | – | – | – | – | – | – | – | – | – | – | – | CMC [1]: 2.1 x 10^-3* ml^-1
2 | CCCCCCCCCCCCN1CCCC1=O [N-dodecyl-2-pyrrolidone] | 36.9 (Å)^2 | 5.27 | S | S | S | PS | S | PS | S* | S | completely soluble | 17.0 CPS | 17 cps | 7.3 | 47 µM | 15-19 °C | 29.9 dynes/cm | 27.6 dynes/cm | 26.7 dynes/cm | VISCOSITY [4, 10]: 6.5 CPS; VISCOSITY [4, 11]: 7.5 CPS; VISCOSITY [4, 12]: 12.5 CPS; VISCOSITY [4, 13]: 16.0 CPS; VISCOSITY [4, 14]: 20.0 CPS; Cloud Point ([6]; listed as dodecyl): 15-19 °C; Cloud Point ([6]; listed as dodecyl pyrrolidone): 31-32 °C; Surface Tension of Aqueous Solutions [7, 17]: 55.4 dynes/cm
3 | CCCCCCCCN1CCCC1=O [N-octyl-2-pyrrolidone] | 39.5 (Å)^2 | 3.20 | S | S | S | S | S | S** | I | S | insoluble | 8.0 CPS | 8 cps | 6.5 | – | < 0 °C | 68.4 dynes/cm | 54.25 dynes/cm | 30.4 dynes/cm | Solution pH [8]: 0.22
4 | CCCCCCCCCCCCCCCCN1CCCC1=O [hexadecyl, N-hexadecyl-2-pyrrolidone] | – | – | – | – | – | – | – | – | – | – | – | – | – | – | – | insoluble | – | – | – | –
5 | CCCCCCCCCCCCCCN1CCCC1=O [N-tetradecyl-2-pyrrolidone] | 53.6 (Å)^2 | 6.25 | S | S | S | S | S | S | S* | S | completely soluble | 20.0 CPS | 2 cps | 5.9 | 57 µM | 33 °C | 30.4 dynes/cm | 26.5 dynes/cm | 26.4 dynes/cm | VISCOSITY [4, 10]: 24.5 CPS; VISCOSITY [4, 11]: 66.0 CPS; VISCOSITY [4, 12]: 96.0 CPS; VISCOSITY [4, 13]: 100.0 CPS; VISCOSITY [4, 14]: 145.0 CPS; Heat of Vaporizn. [9]: 19.7 k cal/mole; Solubility Parameter (δ) [9]: 7.8; Γm ([2]; surface concentration at the liquid-air interface): 3.1 10^-10 mol/cm²; Cloud Point ([6]; listed as tetradecyl): 33 °C; Cloud Point ([6]; listed as tetradecyl pyrrolidone): 33-34 °C; Surface Tension of Aqueous Solutions [7, 17]: 47.5 dynes/cm
6 | O=C1CCCN1C1CCCCC1 [N-cyclohexyl pyrrolidone, reference compound] | – | – | – | – | – | – | – | – | – | – | – | – | – | – | – | 55 °C | – | – | – | –
7 | CCCCCCCCCCN1CCCC1=O [N-decyl-2-pyrrolidone] | 36.1 (Å)^2 | 4.51 | S | S | S | S | S | S | PS* | S | slightly soluble | 12.0 CPS | 12 cps | 5.4 | 440 µM | 19 °C | 51.0 dynes/cm | 27.8 dynes/cm | 27.5 dynes/cm | Solution pH [8]: <0.1; Surface Tension of Aqueous Solutions ([7]; 1.0% solution in distilled water): 27.6 dynes/cm
